Patent publication US20260216103A1, “USE OF LONG-ACTING ß2AR AGONIST IN PREPARATION OF DRUGS FOR TREATING CANCERS” (HONG KONG SXMETEROL PHARMACEUTICAL CO., LIMITED, priority 2023, published 2026)
Structures can show the parent of a compound that is named as a salt.

Tests used:
[1] = test system: chronic myeloid leukemia; conditions: patients, first-line treatment for chronic myeloid leukemia; cited from earlier work
[2] = test system: MDA-MB-231, SW620, CT-26, H460, H446, B16F10, A375, CAL-27, KYSE-150, RT4, SU-DHL-8, PC-3, Hep G2, 786-O, CFPAC-1, PANC-1, Hela; assay: tumor sphere formation assays of a variety of cancer cells (Example 5, FH); type: cell-based; conditions: 1 μM, 3 μM, or 10 μM, 7 d; FIG. 31
Protocol: After 7 d, tumor spheres in the control group and the FH treated group were counted and photographed, respectively.
(§1) Using a One-way ANOVA analysis method and Fisher's LSD test as a post test, statistical differences in the number of tumor spheres in all the groups were analyzed (*, P<0.05; **, P<0.01; ***, P<0.001; ****, P<0.0001).

[3] = test system: cancer stem cells of 17 cancers; assay: tumor sphere formation assays of cancer cells, summary over 17 cancers; type: cell-based; conditions: summary of Examples 1-9; agonist used alone
Source text: As a gold standard for detecting the self-renewal capability of cancer stem cells in vitro, a tumor sphere formation assay may detect individual cancer stem cell that continuously self-renew in a conditioned medium and form tumor spheres consisting of multiple cells. This in vitro experiment is often used to test the responsiveness of clinical patients to anticancer drugs, and guide in vivo medication of the clinical patients.
Cancer stem cells have self-renewal capability, which determines the initiation and progression of cancers. As a gold standard for detecting the self-renewal capability of cancer stem cells in vitro, a tumor sphere formation assay may detect individual cancer stem cells that continuously self-renew in a conditioned medium and form tumor spheres consisting of multiple cells.

[4] = test system: MDA-MB-231, SW620, CT-26, H460, H1299, LLC, H446, B16F10, A375, CAL-27, KYSE-150, RT4, SU-DHL-8, PC-3, Hep G2, G-401, SNU-1, CFPAC-1, PANC-1, SF126, U2OS, Hela; assay: tumor sphere formation assays of a variety of cancer cells (Example 6, IM); type: cell-based; conditions: 1 μM, 3 μM, or 10 μM, 7 d; FIG. 32
Source text: After 7 d, tumor spheres in the control group and the IM treated group were counted and photographed, respectively.

[5] = test system: MDA-MB-231, SW620, CT-26, H460, H446, B16F10, A375, CAL-27, RT4, SU-DHL-8, PC-3, Hep G2, 786-O, SNU-1, CFPAC-1, PANC-1, SF126, Hela; conditions: 1 μM, 3 μM, or 10 μM, 7 d; FIG. 28
Protocol: After 7 d, tumor spheres in the control group and the AT treated group were counted and photographed, respectively.
Using a One-way ANOVA analysis method and Fisher's LSD test as a post test, statistical differences in the number of tumor spheres in all the groups were analyzed (*, P<0.05; **, P<0.01; ***, P<0.001; ****, P<0.0001; n.s., no significant difference).

[6] = test system: MDA-MB-231, SW620, CT-26, H460, H1299, LLC, H446, B16F10, A375, CAL-27, KYSE-150, RT4, SU-DHL-8, PC-3, Hep G2, G-401, 786-O, SNU-1, CFPAC-1, PANC-1, SF126 …; assay: tumor sphere formation assays of a variety of cancer cells (Example 9, VT); type: cell-based; conditions: 1 μM, 3 μM, or 10 μM, 7 d; FIG. 35
Source text: After 7 d, tumor spheres in the control group and the VT treated group were counted and photographed, respectively.

[7] = test system: MDA-MB-231, SW620, CT-26, H460, H446, B16F10, A375, CAL-27, KYSE-150, RT4, SU-DHL-8, PC-3, Hep G2, SKOV3, 786-O, CFPAC-1, PANC-1, SF126, U2OS, Hela; assay: tumor sphere formation assays of a variety of cancer cells (Example 3, BH); type: cell-based; conditions: 1 μM, 3 μM, or 10 μM, 7 d; FIG. 29
Protocol: After 7 d, tumor spheres in the control group and the BH treated group were counted and photographed, respectively.
as §1

[8] = test system: MDA-MB-231, SW620, CT-26, H460, H446, B16F10, A375, CAL-27, KYSE-150, RT4, SU-DHL-8, PC-3, Hep G2, SKOV3, G-401, CFPAC-1, PANC-1, SF126, U2OS, Hela; assay: tumor sphere formation assays of a variety of cancer cells (Example 7, OH); type: cell-based; conditions: 1 μM, 3 μM, or 10 μM, 7 d; FIG. 33
Source text: According to culture conditions in Table 1-Table 17 of Example 1, breast cancer cells MDA-MB-231 (A), colorectal cancer cells SW620 (B), colorectal cancer cells CT-26 (C), lung cancer cells H460 (D), lung cancer cells H446 (E), melanoma cells B16F10 (F), melanoma cells A375 (G), head and neck cancer cells CAL-27 (H), esophageal cancer cells KYSE-150 (I), bladder cancer cells RT4 (J), hematoma cells SU-DHL-8 (K), prostate cancer cells PC-3 (L), liver cancer cells Hep G2 (M), ovarian cancer cells SKOV3 (N), kidney cancer cells G-401 (O), pancreatic cancer cells CFPAC-1 (P), pancreatic cancer cells PANC-1 (Q), brain cancer cells SF126 (R), osteosarcoma cells U2OS(S), and cervical cancer cells Hela (T) were subjected to tumor sphere formation assays, and treated with olodaterol hydrochloride (OH) at concentrations of 1 μM, 3 μM, or 10 μM, respectively. After 7 d, tumor spheres in the control group and the OH treated group were counted and photographed, respectively.
as §1

[9] = test system: MDA-MB-231, SW620, CT-26, H460, H1299, LLC, H446, B16F10, A375, CAL-27, KYSE-150, RT4, SU-DHL-8, PC-3, Hep G2, G-401, 786-O, SNU-1, CFPAC-1, SF126, Hela; assay: tumor sphere formation assays of a variety of cancer cells (Example 8, TH); type: cell-based; conditions: 1 μM, 3 μM, or 10 μM, 7 d; FIG. 34
Source text: After 7 d, tumor spheres in the control group and the TH treated group were counted and photographed, respectively.

[10] = test system: MDA-MB-231, SW620, CT-26, H460, H446, B16F10, A375, CAL-27, KYSE-150, RT4, SU-DHL-8, PC-3, Hep G2, 786-O, CFPAC-1, PANC-1, Hela; assay: tumor sphere formation assays of a variety of cancer cells (Example 4, CH); type: cell-based; conditions: 1 μM, 3 μM, or 10 μM, 7 d; FIG. 30
Protocol: After 7 d, tumor spheres in the control group and the CH treated group were counted and photographed, respectively.
as §1

Structure (SMILES): Cc1ccc(NC(=O)c2ccc(CN3CCN(C)CC3)cc2)cc1Nc1nccc(-c2cccnc2)n1 [imatinib, Imatinib]
- overall 10-year survival rate [1]: 83.3%

Structure (SMILES): COc1ccc(C[C@@H](C)NC[C@H](O)c2ccc(O)c(NC=O)c2)cc1.COc1ccc(C[C@@H](C)NC[C@H](O)c2ccc(O)c(NC=O)c2)cc1.O=C(O)/C=C/C(=O)O [formoterol hemifumarate]
- number of tumor spheres (inhibition of tumor sphere formation) [2]: has therapeutic effects on a variety of types of cancer in a concentration dependent manner
- self-renewal capability of cancer stem cells [3]: can significantly inhibit the self-renewal capability of cancer stem cells of 17 cancers

Structure (SMILES): CCc1cc2c(cc1CC)CC(NC[C@H](O)c1ccc(O)c3[nH]c(=O)ccc13)C2 [indacaterol maleate]
- number of tumor spheres (inhibition of tumor sphere formation) [4]: has therapeutic effects on a variety of types of cancer in a concentration dependent manner
- self-renewal capability of cancer stem cells [3]: can significantly inhibit the self-renewal capability of cancer stem cells of 17 cancers

Structure (SMILES): COc1ccc(C[C@@H](C)NC[C@H](O)c2ccc(O)c(NC=O)c2)cc1 [arformoterol tartrate]
- number of tumor spheres (inhibition of tumor sphere formation) [5]: has therapeutic effects on a variety of types of cancer in a concentration dependent manner

Structure (SMILES): O=C(O)C(c1ccccc1)(c1ccccc1)c1ccccc1.OCc1cc([C@@H](O)CNCCCCCCOCCOCc2c(Cl)cccc2Cl)ccc1O [vilanterol trifenate]
- number of tumor spheres (inhibition of tumor sphere formation) [6]: has therapeutic effects on a variety of types of cancer in a concentration dependent manner
- self-renewal capability of cancer stem cells [3]: can significantly inhibit the self-renewal capability of cancer stem cells of 17 cancers

Structure (SMILES): CN(C)C(=O)Oc1cc(OC(=O)N(C)C)cc(C(O)CNC(C)(C)C)c1 (stereo not shown) [bambuterol hydrochloride]
- self-renewal capability of cancer stem cells [3]: can significantly inhibit the self-renewal capability of cancer stem cells of 17 cancers
- number of tumor spheres (inhibition of tumor sphere formation) [7]: has therapeutic effects on a variety of types of cancer in a concentration dependent manner

Structure (SMILES): COc1ccc(CC(C)(C)NC[C@H](O)c2cc(O)cc3c2OCC(=O)N3)cc1 [olodaterol hydrochloride]
- number of tumor spheres (inhibition of tumor sphere formation) [8]: has therapeutic effects on a variety of types of cancer in a concentration dependent manner
- self-renewal capability of cancer stem cells [3]: can significantly inhibit the self-renewal capability of cancer stem cells of 17 cancers

Structure (SMILES): CC(C)(C)NCC(O)c1ccccc1Cl (stereo not shown) [tulobuterol hydrochloride]
- number of tumor spheres (inhibition of tumor sphere formation) [9]: has therapeutic effects on a variety of types of cancer in a concentration dependent manner
- self-renewal capability of cancer stem cells [3]: can significantly inhibit the self-renewal capability of cancer stem cells of 17 cancers

Structure (SMILES): CC(C)(C)NCC(O)c1cc(Cl)c(N)c(Cl)c1 (stereo not shown) [clenbuterol hydrochloride]
- self-renewal capability of cancer stem cells [3]: can significantly inhibit the self-renewal capability of cancer stem cells of 17 cancers
- number of tumor spheres (inhibition of tumor sphere formation) [10]: has therapeutic effects on a variety of types of cancer in a concentration dependent manner
